From PMC10447463, “Data-mining unveils structure–property–activity correlation of viral infectivity enhancing self-assembling peptides” (Nature Communications, 2023)
Like-named read-outs stand apart in the source and are kept apart here.

Legend:
[1] = Turbidity, derived count rate of scattered light; assay type: physicochemical; details: for Count Rate / kcps: derived count rate of scattered light at 633 nm, 173°, from zeta-potential measurement, 0.1 mg/mL in 1 mM KCl after 1 d at 1 mg/mL in PBS, turbidity / microscopic aggregation, mean of triplicate
In short: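 Samples: 1 mg/mL in PBS pH 7.4 (from DMSO), 1 d at RT, then diluted in 1 mM KCl immediately before measurement. Triplicates, two independent runs averaged.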

[2] = assay type: physicochemical; design: key to Fibril / Fibril Formation / TEM 2cat / Fibril: 1 = fibrils present; 0 non-fibrillar structures; details: for Fibril / Fibril Formation: 1 mg/mL, uranyl acetate stain, qualitative
[3] = test system: HIV-1 infection of TZM-bl cells; assay: HIV-1 infectivity enhancement assay, β-galactosidase luminescence; assay type: cell-based; details: for Rel-EFC / Log10 Infection Rel EFC: 1.3 µM peptide; for Rel-EFC: infection relative to EF-C (QCKIKQIINMWQ = 1); for Log10 Infection Rel EFC: log10 of infection relative to EF-C; for Log Infectivity: Log10 infection relative to EF-C, TZM-bl cells, asymmetric std dev errors; for Log10 Infection Rel EF-C: HIV-1 infection of TZM-bl cells; for Abs. Inf.: absolute infection signal, HIV-1 on TZM-bl cells, β-galactosidase luminescence; for Log10 Inf. rel. to EF-C: log10 of HIV-1 infection of TZM-bl cells relative to EF-C (EF-C = 0)
[4] = Log10 of derived count rate of scattered light (turbidity)
[5] = turbidity, Log10 of derived count rate of scattered light, Figure 3A source data
[6] = FigS12 panel A, fibril category by TEM
[7] = TEM, 1 = fibrils present, 0 = non-fibrillar
[8] = TEM, 1 = fibrils present, 0 = non-fibrillar structures
[9] = Fig. S7 panel A (plotted against β-sheet content)
[10] = Log10 of infection rate relative to EF-C, Figure 3A source data
[11] = infection rate relative to EF-C, log10, data of Figure 2D
[12] = infection rate relative to EF-C, log10, source data of Figure 2C
[13] = turbidity, log10 of derived count rate of scattered light
[14] = Fig. S7 panel B (plotted against CR), rounded to two decimals

Substance	Log10 Count Rate [1, 4]	Count Rate / kcps [1] [kcps]	Log10 Count Rate [1, 5]	TEM 2cat ([2]; Fig S10 panel D)	TEM 2cat [2, 6]	Fibril ([2]; FigS12 panel B, TEM)	Fibril / Fibril Formation ([2]; TEM)	Fibril [2, 7]	Fibril [2, 8]	Rel-EFC [3]	Log10 Infection Rel EFC [3]	Log Infectivity [3, 9]	Log10 Infection Rel EF-C [3, 10]	Log10 Infection Rel EF-C [3, 11]	Log10 Infection Rel EF-C [3, 12]	Log10 Count Rate [1, 13]	Fibril ([2]; Fig S10 panel E)	Log Infectivity [3, 14]	Abs. Inf. [3]	Log10 Inf. rel. to EF-C [3]	also measured
KWKWQW	3.189	1545	3.189	0	0	0	0	0	0	0,01	-1,84	-1.838	-1.84	-1.838	-1.838						Log10 Count Rate ([1]; log10 of derived count rate of scattered light (turbidity)): 3.189; Log10 Count Rate ([1]; logarithm of count rate in kcps): 3.189
CEIEIQI	1.716	52	1.716	1	1	1	1	1	1	0,03	-1,55	-1.554	-1.55	-1.554	-1.554	1.716	1	-1.55	633.3	-1.554	
CKFQC	2.115	130	2.115	0	0	0	0	0	0	0,02	-1,64	-1.643	-1.64	-1.643	-1.643	2.115	0	-1.64	496.7	-1.643	
HGEHGE	2.381	241	2.381	0	0	0	0	0	0	0,01	-2,19	-2.193	-2.19	-2.193	-2.193	2.381			140	-2.193	
KIKIQINMWQ	3.342	2196	3.342	1			1	1	1	0,3	-0,53	-0.5276	-0.53	-0.5276	-0.5276	3.342	1	-0.53	6650	-0.5276	TEM 2cat ([2]; category: fibrils present or non-fibrillar): 1; Log10 of Rel to EFC (Feb2021) ([3]; Log10 of infection relative to EF-C, all peptides of FigS16): -0.53
MKFM	2.1165	131	2.1165	0	0	0	0	0	0	0,02	-1,76	-1.756	-1.76	-1.756	-1.756	2.1165			383.3	-1.756	
CKFC	2.371	235	2.371	0	0	0	0	0	0	0,01	-1,96	-1.959	-1.96	-1.959	-1.959	2.371	0	-1.96	240	-1.959	
TKTLTKTL	2.711	515	2.711	0	0	0	0	0	0	0,02	-1,67	-1.671	-1.67	-1.671	-1.671	2.711			316.7	-1.671	
HRRHFRHKITKKK	0.9777	10	0.9777	0	0	0	0	0	0	0,01	-1,87	-1.868	-1.87	-1.868	-1.868	0.9777	0	-1.87	150	-1.868	
